Results taken from ChEMBL document CHEMBL1201862, “PubChem BioAssay data set” (2004).
Calls of active or inactive are those of the source.

What was measured:
Cytochrome P450 2C19 = Cytochrome P450 2C19 (Homo sapiens, UniProt P33261); experiment: Cytochrome panel assay with activity outcomes. Panel member name: p450-cyp2c19 Compounds with AC50 equal or less than 10 uM are considered active; type: functional
Cytochrome P450 1A2 = target: T1, Cytochrome P450 1A2 (Homo sapiens, UniProt P05177);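 also: PubChem cytochrome P450 panel assay, CYP1A2 panel member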
T1 sequence (P05177 whole entry): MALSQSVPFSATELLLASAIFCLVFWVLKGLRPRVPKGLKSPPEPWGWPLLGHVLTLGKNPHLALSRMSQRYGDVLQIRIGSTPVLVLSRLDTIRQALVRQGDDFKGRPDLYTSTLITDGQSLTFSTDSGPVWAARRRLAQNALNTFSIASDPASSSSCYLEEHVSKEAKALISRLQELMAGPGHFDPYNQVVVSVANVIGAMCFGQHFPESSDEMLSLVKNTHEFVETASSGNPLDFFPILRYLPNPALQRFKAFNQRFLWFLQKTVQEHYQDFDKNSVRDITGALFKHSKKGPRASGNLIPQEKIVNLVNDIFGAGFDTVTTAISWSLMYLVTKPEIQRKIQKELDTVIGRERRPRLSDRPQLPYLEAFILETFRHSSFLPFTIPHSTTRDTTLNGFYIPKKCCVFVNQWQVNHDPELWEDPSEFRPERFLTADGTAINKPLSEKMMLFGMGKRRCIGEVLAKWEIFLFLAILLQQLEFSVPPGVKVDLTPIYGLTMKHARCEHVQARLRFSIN

Cytochrome P450 2C9 [1] = target: T2, Cytochrome P450 2C9 (Homo sapiens, UniProt P11712)
[2] = target: T3, Corticotropin-releasing factor receptor 2/Corticotropin-releasing factor-binding protein (Homo sapiens, UniProt P24387+Q13324); experiment: Dose Response confirmation of uHTS hits for small molecule antagonists of the CRF-binding protein and CRF-R2 receptor complex.; type: functional; settings: read-out: IC50_Mean
T3 sequence (Q13324 whole entry): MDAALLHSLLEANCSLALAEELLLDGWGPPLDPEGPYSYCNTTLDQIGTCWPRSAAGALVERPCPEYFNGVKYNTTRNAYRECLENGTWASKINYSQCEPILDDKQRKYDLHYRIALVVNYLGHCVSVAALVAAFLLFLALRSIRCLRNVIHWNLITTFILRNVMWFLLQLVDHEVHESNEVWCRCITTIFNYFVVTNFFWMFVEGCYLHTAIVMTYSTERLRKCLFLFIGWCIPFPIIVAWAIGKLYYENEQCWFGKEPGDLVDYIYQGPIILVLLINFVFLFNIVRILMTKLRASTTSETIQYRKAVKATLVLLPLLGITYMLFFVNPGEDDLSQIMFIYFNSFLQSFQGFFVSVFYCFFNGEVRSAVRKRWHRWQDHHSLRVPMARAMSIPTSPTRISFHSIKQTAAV
T3 sequence (P24387 whole entry): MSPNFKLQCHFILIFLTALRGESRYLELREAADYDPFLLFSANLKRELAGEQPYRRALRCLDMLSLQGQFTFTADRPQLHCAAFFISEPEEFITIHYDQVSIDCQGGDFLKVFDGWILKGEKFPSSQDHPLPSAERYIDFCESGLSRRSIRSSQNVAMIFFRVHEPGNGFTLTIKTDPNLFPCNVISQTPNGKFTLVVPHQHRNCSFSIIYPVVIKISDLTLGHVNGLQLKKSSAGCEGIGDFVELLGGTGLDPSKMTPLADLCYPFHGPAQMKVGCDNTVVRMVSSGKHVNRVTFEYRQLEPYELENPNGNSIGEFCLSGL

[3] = target: T3, Corticotropin-releasing factor receptor 2/Corticotropin-releasing factor-binding protein; experiment: activators of CRF receptor 2 with binding protein – uHTS hits, confirmation (AID 602473); type: functional; settings: read-out: EC50_Mean
[4] = P. falciparum Dd2 growth inhibitors, dose response, SYBR Green, cherry-picked samples (AID 1159567); type: functional, cell-based
[5] = NIH-3T3 fibroblast cytotoxicity, dose response, cytotoxicity control, cell-based, fluorescence, Alamar Blue, secondary assay (AID 2327); type: functional;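 also: NIH-3T3 mouse fibroblasts cultured with fluconazole at 8 µg/mL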
[6] = test system: Streptococcus sp. 'group A'; experiment: growth inhibition of control SK(-) GAS strain, dose response, counter-screen for streptokinase expression inhibitor project, luminescence, kanamycin, BacTiterGlo, confirmation (AID 1900); type: functional, organism-based
[7] = C. albicans growth with fluconazole, confirmation, fluorescence, retest (AID 2467); type: functional, cell-based
Streptococcus = experiment: Group A Streptococcus viability loss, dose response, counter-screen for streptokinase expression inhibitor project, luminescence, BacTiterGlo (AID 1915); type: functional, organism-based;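 also: potency for reduction of bacterial viability or growth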
[8] = inhibitors of clade B AD8 Env fusion, dose response, cell-based, cherry-pick (AID 652062); type: functional;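 also: luciferase signal from cell-cell fusion driven by HIV-1 clade B AD8 Env; potency is for inhibitors of fusion seen as a drop in luminescence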
[9] = target: Luciferin 4-monooxygenase (Photinus pyralis, UniProt P08659); experiment: firefly luciferase enzyme inhibitors, dose response, biochemical, luminescence (AID 1891)
[10] = Luminescence Cell-Based Dose Confirmation HTS to Identify Inhibitors of Platelet Dense Granule Release. [Related pubchem assays: 1663 (Primary HTS), 1678 (Summary of Project)]; type: functional
Cytochrome P450 3A4 = Cytochrome P450 3A4 (Homo sapiens, UniProt P08684);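 also: CYP3A4 tested as one member of a cytochrome P450 panel screen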
[11] = inhibitors of intracellular T. cruzi replication, confirmation, NIH3T3 host cells, beta-gal luminescence (AID 2044); type: functional, cell-based;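 also: intracellular parasites grown in NIH/3T3 mouse fibroblasts as host cells; luminescent beta-galactosidase reporter signal from transgenic T. cruzi replicating inside host cells; inhibitors lower the luminescence signal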
[12] = cytotoxicity toward NIH3T3 fibroblasts, dose response, counter-screen, cell-based, ATP luminescence, mouse fibroblasts (AID 2010); type: functional;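 also: cells exposed to compound for about 90 hours before reading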
Cytochrome P450 2C9 [13] = target: T2, Cytochrome P450 2C9; remark: listed apart in the source
[14] = Luminescence Cell-Based Dose Confirmation HTS to Identify Activators of 5'UTR Stem-Loop Driven Alpha-Synuclein mRNA Translation in H4 Neuroglioblastoma Cells. [Related pubchem assays: 1829 (Project Summary), 1814 (Primary HTS)]; type: functional
[15] = Luminescence Cell-Based Dose Response HTS to Identify Activators of Luciferase Translation or Activity in H4 […] Cells. [Related pubchem assays: 1829 (Project Summary), 1814 (Primary HTS)]; type: functional
H4 = experiment: Luminescence Cell-Based Dose Response HTS to Identify Activators of 5'UTR Stem-Loop Driven Prion Protein mRNA Translation in H4 Neuroglioblastoma Cells. [Related pubchem assays: 1829 (Project Summary), 1814 (Primary HTS)]; type: functional; settings: Homo sapiens

Chain of Cytochrome P450 2C19 (P33261 whole entry): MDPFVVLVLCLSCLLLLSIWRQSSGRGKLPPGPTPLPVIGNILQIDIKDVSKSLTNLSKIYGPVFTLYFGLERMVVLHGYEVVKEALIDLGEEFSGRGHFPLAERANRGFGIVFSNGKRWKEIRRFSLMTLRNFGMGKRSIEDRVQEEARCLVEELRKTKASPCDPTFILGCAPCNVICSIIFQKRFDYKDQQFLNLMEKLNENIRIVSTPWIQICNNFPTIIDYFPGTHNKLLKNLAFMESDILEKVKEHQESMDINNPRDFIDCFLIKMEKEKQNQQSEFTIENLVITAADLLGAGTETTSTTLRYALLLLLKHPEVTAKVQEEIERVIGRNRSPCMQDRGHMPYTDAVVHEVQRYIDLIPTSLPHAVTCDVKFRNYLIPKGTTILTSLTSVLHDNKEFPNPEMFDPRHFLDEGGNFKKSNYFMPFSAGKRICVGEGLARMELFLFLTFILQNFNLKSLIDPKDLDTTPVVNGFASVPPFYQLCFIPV
Chain of Cytochrome P450 3A4 (P08684 whole entry): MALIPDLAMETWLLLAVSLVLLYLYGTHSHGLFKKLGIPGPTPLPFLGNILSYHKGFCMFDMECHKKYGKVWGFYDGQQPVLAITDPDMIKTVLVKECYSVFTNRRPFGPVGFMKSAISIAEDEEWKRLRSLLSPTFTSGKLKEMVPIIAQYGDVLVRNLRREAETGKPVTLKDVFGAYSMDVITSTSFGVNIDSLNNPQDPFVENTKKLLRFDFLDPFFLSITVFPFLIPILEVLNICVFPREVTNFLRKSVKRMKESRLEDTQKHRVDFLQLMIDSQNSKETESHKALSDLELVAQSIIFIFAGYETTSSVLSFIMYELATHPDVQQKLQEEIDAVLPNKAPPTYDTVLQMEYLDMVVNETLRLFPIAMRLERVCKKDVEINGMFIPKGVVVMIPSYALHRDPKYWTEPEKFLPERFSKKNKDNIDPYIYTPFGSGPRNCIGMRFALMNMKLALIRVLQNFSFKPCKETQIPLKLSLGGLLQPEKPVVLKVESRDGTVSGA
T2 sequence (P11712 whole entry): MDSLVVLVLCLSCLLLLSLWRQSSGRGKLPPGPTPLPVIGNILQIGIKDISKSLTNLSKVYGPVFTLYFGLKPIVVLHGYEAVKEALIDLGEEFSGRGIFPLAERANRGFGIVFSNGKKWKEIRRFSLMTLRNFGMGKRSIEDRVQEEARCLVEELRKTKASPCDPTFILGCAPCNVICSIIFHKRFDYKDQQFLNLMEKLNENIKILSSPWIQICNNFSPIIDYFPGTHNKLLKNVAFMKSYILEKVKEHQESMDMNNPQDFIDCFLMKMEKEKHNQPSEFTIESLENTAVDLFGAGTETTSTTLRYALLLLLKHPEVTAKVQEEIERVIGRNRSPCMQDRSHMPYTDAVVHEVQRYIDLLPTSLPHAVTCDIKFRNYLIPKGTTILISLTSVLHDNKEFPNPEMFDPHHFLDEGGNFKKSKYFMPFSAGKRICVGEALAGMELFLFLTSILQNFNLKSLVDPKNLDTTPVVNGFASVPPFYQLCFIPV
Chain of Luciferin 4-monooxygenase (P08659 whole entry): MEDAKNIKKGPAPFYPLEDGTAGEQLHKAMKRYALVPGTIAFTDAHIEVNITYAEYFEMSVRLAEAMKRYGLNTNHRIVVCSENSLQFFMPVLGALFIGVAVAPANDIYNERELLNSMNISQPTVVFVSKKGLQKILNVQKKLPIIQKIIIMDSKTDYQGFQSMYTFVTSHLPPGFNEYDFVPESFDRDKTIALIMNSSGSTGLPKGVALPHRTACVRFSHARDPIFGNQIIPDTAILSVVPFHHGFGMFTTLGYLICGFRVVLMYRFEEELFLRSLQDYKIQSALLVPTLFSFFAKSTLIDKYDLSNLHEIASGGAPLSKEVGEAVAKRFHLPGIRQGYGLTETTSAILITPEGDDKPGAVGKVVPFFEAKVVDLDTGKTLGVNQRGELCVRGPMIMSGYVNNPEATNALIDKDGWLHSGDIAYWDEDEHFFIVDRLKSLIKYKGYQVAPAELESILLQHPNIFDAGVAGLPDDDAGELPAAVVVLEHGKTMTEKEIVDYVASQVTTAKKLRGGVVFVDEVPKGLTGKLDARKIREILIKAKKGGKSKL

SMILES | AC50 (Cytochrome P450 2C9 [1]) | IC50 [2] | EC50 [3] | also measured
C/C(CC(=O)Nc1cc(Cl)ccc1Cl)=N\NC(N)=S | inconclusive | – | – | AC50 (Cytochrome P450 2C19; read-out: AC50): 28.2 µM (inconclusive); AC50 (Cytochrome P450 1A2): 12.6 µM (inconclusive)
COc1ccc(/C=C2\SC(=S)N(CC(=O)NCCO)C2=O)cc1 | – | > 47.1 µM (inactive) | > 53 µM (inactive) | –
COc1ccccc1C#Cc1ccc2c(c1)[C@H]1[C@H](CCN1C(=O)CN1CCOCC1)[C@@H](CO)N2 | – | – | – | AC50 [4]: 5.01 µM (active)
CCc1ccc(OCC(=O)NNC(=S)NC(=O)C2CCCCC2)c(Br)c1 | – | – | – | EC50 [5]: > 150 µM (inactive); EC50 [6]: < 0.06 µM (active); EC50 [7]: 2.33 µM (active); EC50 (Streptococcus): 3.91 µM (active)
COc1ccccc1CNC(=O)C[C@H]1C[C@H]2c3cc(NC(=O)Cc4ccncc4)ccc3O[C@H]2[C@H](CO)O1 | – | – | – | AC50 [4]: 5.4 µM (active)
CN(C)c1nc(C#N)nc(N2CCOCC2)n1 | inconclusive | – | – | AC50 (Cytochrome P450 2C19): inconclusive
O=C(c1cc(C(F)(F)F)cc(C(F)(F)F)c1)N1CCC2(CC1)CCN(c1ncccn1)CC2 | inconclusive | – | – | –
CCN1C(=O)[C@H]2[C@@H](c3ccc(C(F)(F)F)cc3)N[C@]3(CCCN(Cc4ccccc4)C3=O)[C@H]2C1=O | – | – | – | AC50 [8]: 0.682 µM (active)
CCCCNC(=O)CCc1nc2cccnc2n1Cc1ccc(OC)cc1 | – | > 47.1 µM (inactive) | > 53 µM (inactive) | –
Cc1ccc(-c2csc3nnc(SCC(=O)N4CCN(Cc5ccccc5)CC4)n23)cc1 | – | > 47.1 µM (inactive) | > 53 µM (inactive) | –
O=C(/C=C/c1ccccc1)NC(=S)Nc1ccc(N2CCOCC2)c(Cl)c1 | – | – | – | EC50 [5]: > 160 µM (inactive); EC50 [7]: 5.76 µM (active)
COCc1nnc(NC(=O)c2ccc(S(=O)(=O)N3CCCc4ccccc43)cc2)o1 | – | – | – | EC50 [5]: > 150 µM (inconclusive); EC50 [7]: 2.96 µM (active)
Cc1cc2ccccc2c(=O)n1CC(=O)NCC(=O)N1CCCC1 | inconclusive | – | – | –
O=C(CN1C(=O)NC2(CCCC2)C1=O)c1ccc(Cl)s1 | – | > 47.1 µM (inactive) | > 53 µM (inactive) | –
CCOc1ccc(NC(=O)CCCN2C(=O)C(c3ccccc3)Oc3cccnc32)cc1 (configuration not stated) | – | > 47.1 µM (inactive) | > 53 µM (inactive) | –
COc1cccc(Nc2ncc3nc(-c4cn(C)c5ccccc45)c(=O)n(C[C@H]4CCCO4)c3n2)c1 | inconclusive | – | – | –
Cc1ccc2oc(-c3cccc(NC(=O)C4CCCO4)c3)nc2c1 (configuration not stated) | – | – | – | EC50 [9]: 26.6 µM (active); EC50 [10]: > 112 µM (not active)
O=C(CCCCCN1C(=O)c2cccc3cccc(c23)C1=O)N1CCOCC1 | – | – | – | EC50 [5]: 22.3 µM (active); EC50 [7]: > 38 µM (not active)
Cc1ccc(S(=O)(=O)n2nnc3ccccc32)c(C)c1C | – | > 47.1 µM (inactive) | > 53 µM (inactive) | –

SMILES | AC50 (Cytochrome P450 2C9 [1]) | IC50 [2] | EC50 [3] | also measured
CCOc1ccccc1NC(=O)CN1CCC(NC(=O)c2ccccc2)CC1 | inconclusive | – | – | –
COc1ccccc1NC(=O)c1cnc2n(c1=O)CCS2 | inconclusive | – | – | AC50 (Cytochrome P450 3A4): 31.6 µM (inconclusive)
CC1CCC(NC(=O)CCN2C(=O)C3CC=CCC3C2=O)CC1 (configuration not stated) | – | > 47.1 µM (inactive) | > 53 µM (inactive) | –
N#C[C@@H]1[C@H](c2ccccc2-c2cccc(F)c2)[C@@H](CO)N1C(=O)C1CCCC1 | – | – | – | AC50 [4]: 4.79 µM (active)
CN(C)c1ccnc(-c2cccc(NS(C)(=O)=O)c2)n1 | inconclusive | – | – | AC50 (Cytochrome P450 3A4): 31.6 µM (inconclusive)
O=C(c1ccccc1F)N1CC(=O)N2[C@H](C1)[C@H](c1ccc(-c3ccccc3)cc1)[C@@H]2CO | – | – | – | AC50 [4]: 5.6 µM (active)
N#Cc1ccccc1Sc1ccccc1N | – | > 47.1 µM (inactive) | > 53 µM (inactive) | AC50 (Cytochrome P450 1A2): 22.4 µM (inconclusive)
COc1cc(OC)c(C#N)c(S(=O)(=O)Cc2ccccc2)c1 | inconclusive | – | – | –
CCc1ccc(N2C(=O)c3ccc4c5c(ccc(c35)C2=O)CC4)cc1 | inconclusive | – | – | –
COc1ccc(C#Cc2ccc([C@@H]3[C@@H](CO)N4CCCCN(C(=O)Nc5ccccc5F)C[C@@H]34)cc2)cc1 | – | – | – | AC50 [4]: 8.08 µM (active)
O=c1cc(Cc2ccc([N+](=O)[O-])cc2)[nH]c(=O)[nH]1 | – | > 47.1 µM (inactive) | > 53 µM (inactive) | –
COc1ccc(CNc2oc(COc3ccccc3)nc2C#N)cc1 | – | > 47.1 µM (inactive) | > 53 µM (inactive) | –
C=CCn1c(C)cc(C(=O)CSc2nnc(Cc3ccccc3)o2)c1C | – | > 47.1 µM (inactive) | > 53 µM (inactive) | –
COC(=O)c1c(C)[nH]c(O)c1/C=N/c1ccc(C(C)C)cc1 | – | – | > 53 µM (inactive) | EC50 [11]: 4.19 µM (active); EC50 [12]: > 60 µM (inconclusive); AC50 (Cytochrome P450 2C19; read-out: AC50): 25.1 µM (inconclusive); AC50 (Cytochrome P450 3A4): 28.2 µM (inconclusive); AC50 (Cytochrome P450 2C9 [13]): 28.2 µM (inconclusive)
Cc1ccc(OCn2c(=O)sc3ccccc32)cc1 | – | > 47.1 µM (inactive) | > 53 µM (inactive) | EC50 [14]: 42 µM (active); EC50 [15]: 35.3 µM (active); EC50 (H4): 14 µM (active)
COc1ccc(CC(=S)N2CCOCC2)cc1OC | inconclusive | – | – | –
Cc1noc(C)c1C(=O)N1CCC2(CCN(Cc3ccccc3)CC2)CC1 | inconclusive | – | – | –
Cc1ccccc1C(=O)NC(=S)NCC(=O)c1ccccc1 | inconclusive | – | – | AC50 (Cytochrome P450 3A4): 28.2 µM (inconclusive)
Cc1nc2ccccn2c1C(=O)N/N=C/c1ccccc1[N+](=O)[O-] | inconclusive | – | – | –
